Test results taken from patent US20190255019A1, “NOVEL DOSAGE REGIMEN” (Biogen MA Inc., priority 2016, published 2019).
Read-outs that look alike come from different tables or passages of the source.

Assays:
[1] = cited from earlier work
Human Nav1.7 = Human Nav1.7 (Homo sapiens, UniProt Q15858); assay: In vitro assay quantifying block of hNav1.7 at mid point inactivation, read at free plasma Cmax; assay type: biochemical; conditions: at free plasma Cmax of 200 mg bid
Description: In Table 1, free plasma CMax exposures of Example 1 obtained from modelling different dosing regimens were used to quantify the resulting amount of block at the primary target hNaV1.7. […] Doses of marketed drugs used in trigeminal neuralgia were compared using the same paradigm.

trigeminal neuralgia = conditions: 200 mg bid, TN; cited from earlier work

Sequence of Human Nav1.7 (Q15858 whole entry): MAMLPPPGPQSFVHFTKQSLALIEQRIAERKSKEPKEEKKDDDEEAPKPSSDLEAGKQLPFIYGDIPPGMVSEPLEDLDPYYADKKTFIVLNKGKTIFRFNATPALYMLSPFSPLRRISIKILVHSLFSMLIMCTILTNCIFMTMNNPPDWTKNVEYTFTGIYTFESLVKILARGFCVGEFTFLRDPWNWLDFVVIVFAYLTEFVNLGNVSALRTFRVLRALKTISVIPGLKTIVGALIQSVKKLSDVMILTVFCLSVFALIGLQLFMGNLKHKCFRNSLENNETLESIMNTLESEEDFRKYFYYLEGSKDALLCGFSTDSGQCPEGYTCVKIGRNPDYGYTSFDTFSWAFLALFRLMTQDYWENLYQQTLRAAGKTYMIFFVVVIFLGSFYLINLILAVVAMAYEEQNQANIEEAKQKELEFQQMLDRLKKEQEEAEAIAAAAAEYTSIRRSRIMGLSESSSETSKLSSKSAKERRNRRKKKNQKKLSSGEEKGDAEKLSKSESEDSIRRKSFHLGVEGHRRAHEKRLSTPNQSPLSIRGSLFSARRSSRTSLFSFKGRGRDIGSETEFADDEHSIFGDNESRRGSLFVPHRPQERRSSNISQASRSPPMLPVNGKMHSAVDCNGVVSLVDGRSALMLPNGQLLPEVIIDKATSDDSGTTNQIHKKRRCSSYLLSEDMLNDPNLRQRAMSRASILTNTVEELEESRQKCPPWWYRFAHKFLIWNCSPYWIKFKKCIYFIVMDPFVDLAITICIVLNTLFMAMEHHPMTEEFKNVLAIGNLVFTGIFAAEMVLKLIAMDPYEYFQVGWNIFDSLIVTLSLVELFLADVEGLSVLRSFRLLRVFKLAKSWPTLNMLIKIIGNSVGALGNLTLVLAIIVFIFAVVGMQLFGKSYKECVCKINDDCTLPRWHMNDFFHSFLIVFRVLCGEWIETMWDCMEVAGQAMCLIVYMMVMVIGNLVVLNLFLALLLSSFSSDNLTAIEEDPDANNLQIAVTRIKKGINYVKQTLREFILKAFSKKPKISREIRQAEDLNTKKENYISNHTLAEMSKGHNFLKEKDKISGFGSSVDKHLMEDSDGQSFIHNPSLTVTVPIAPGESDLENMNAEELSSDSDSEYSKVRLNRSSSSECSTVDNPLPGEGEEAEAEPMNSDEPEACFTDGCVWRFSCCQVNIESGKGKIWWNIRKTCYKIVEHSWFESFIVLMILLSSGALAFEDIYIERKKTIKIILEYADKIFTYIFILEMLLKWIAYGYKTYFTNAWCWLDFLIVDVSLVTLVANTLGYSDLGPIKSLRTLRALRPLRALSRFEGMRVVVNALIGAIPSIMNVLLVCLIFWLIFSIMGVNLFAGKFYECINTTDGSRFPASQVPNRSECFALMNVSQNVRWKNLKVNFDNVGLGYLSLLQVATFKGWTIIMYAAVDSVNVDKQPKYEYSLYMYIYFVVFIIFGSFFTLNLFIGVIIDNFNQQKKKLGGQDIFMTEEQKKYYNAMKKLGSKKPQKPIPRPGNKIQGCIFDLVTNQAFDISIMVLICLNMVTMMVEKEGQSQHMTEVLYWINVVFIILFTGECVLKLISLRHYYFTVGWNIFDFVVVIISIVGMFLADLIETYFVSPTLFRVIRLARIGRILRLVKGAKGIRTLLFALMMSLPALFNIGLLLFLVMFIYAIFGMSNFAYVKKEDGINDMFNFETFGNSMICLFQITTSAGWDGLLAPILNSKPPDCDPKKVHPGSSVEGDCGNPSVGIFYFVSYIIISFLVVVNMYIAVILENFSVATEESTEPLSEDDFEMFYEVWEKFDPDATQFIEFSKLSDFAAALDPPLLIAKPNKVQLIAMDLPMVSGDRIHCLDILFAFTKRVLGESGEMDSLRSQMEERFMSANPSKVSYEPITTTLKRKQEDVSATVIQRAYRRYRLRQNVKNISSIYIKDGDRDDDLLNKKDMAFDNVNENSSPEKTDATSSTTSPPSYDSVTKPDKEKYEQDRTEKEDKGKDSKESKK

Structure (SMILES) | Cmax Free plasma ([1]; Carbamazepine 200 mg qid) [µM] | Free fraction ([1]; Carbamazepine 200 mg qid) [%] | Human Nav1.7 % Inhibition (Human Nav1.7) [%] | Cmax Free plasma ([1]; Lamotrigine 200 mg bid) [µM] | Free fraction ([1]; Lamotrigine 200 mg bid) [%] | Clinical efficacy (trigeminal neuralgia)
NC(=O)N1c2ccccc2C=Cc2ccccc21 [Carbamazepine] | 4 to 12 | 24 | – | – | – | –
Nc1nnc(-c2cccc(Cl)c2Cl)c(N)n1 [Lamotrigine] | – | – | 6 | 5.8 | 44 | NO EFFICACY
